In patent publication US20250296953A1, “3,4-THIAZOLO-STEROIDS AND METHODS OF MAKING AND USING THE SAME” (Arkansas State University - Jonesboro, priority 2018, published 2025):

Tests used:
Type in all cases: cell-based
LOX IMVI = test: Melanoma cytotoxicity assay (resazurin); settings: for IC50: Homo sapiens, LOX IMVI melanoma cells
How it was run: (§1)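 Readout: resazurin fluorescence (ex 544, em 590 nm) after 6 h dye incubation, following 24 h compound exposure of ~4000 cells/well. Viability = background-subtracted signal over DMSO wells; IC50 by sigmoidal curve fitting.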

SK-MEL-25 = test: Melanoma cytotoxicity assay (resazurin); settings: for IC50: Homo sapiens, SK-MEL-25 melanoma cells (head prints SK-25), read-out: SK-25 IC50; for SK-MEL-25 (% viability): human, 24 h
How it was run: as §1

SK-MEL-28 = test: Melanoma cytotoxicity assay (resazurin); settings: for IC50: Homo sapiens, SK-MEL-28 melanoma cells; for SK-MEL-28 (% viability): human, 24 h
How it was run: as §1

SK-MEL-5 = test: Melanoma cytotoxicity assay (resazurin); settings: human, 24 h
How it was run: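 ~4000 cells/well, 24 h attach, 37° C/5% CO2; cpd triplicate, 24 h; resazurin 6 h; fluor 544/590 nm. % viability vs DMSO after media-blank subtraction; IC50 from dilution series, sigmoidal fit.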

HFF-1 = test: Cytotoxicity assay (resazurin); settings: Homo sapiens; HFF-1 cells; read-out: HFF-1 (IC50)
MALME-3M = test: Melanoma cytotoxicity assay (resazurin); settings: human, 24 h
Method: On day 1, the cell line trypsinized and centrifuged to form cell pellet. The pellet was diluted in media, then counted using Countess automated cell counter. Approximately 4000 cells (198 uL) per well plated in […]. A control well of 200 uL growth media was also prepared. Wells closest to plate perimeter were filled with 200 uL PBS to prevent inner well evaporation. The 96 well plates are incubated in 37° C. incubator at 5% CO2 for 24 hours.
On day 2, compounds were added (in triplicate) along with DMSO/Dacarbazine controls (2 uL) added to bring wells to volume of 200 μL. The 96 well plates are incubated in 37° C. incubator at 5% CO2 for 24 hours.
On day 3, 40 μL of 0.15 mg/ml reszurin solution added to wells. Samples were placed in a 37° C. incubator at 5% CO2 for 6 hours. Excitation and emission for fluorescence measured at 544 nm and 590 nm using BMG Labtech Fluostar Optima plate reader
Percent viability determined by taking average of each triplicate well fluorescence and subtracting GM well reading to remove the background signal. This difference is then divided by the average of the negative control (DMSO) wells to determine percent viability.
IC50s were determined by using cereal dilution of compound to determine viability. Viabilities and concentration of cells are analyzed in Graphpad Prism by creating sigmoidal curve graph, which will determine the IC50 concentration.
We analyzed the ability of the thiazole-androstane derivatives to inhibit growth in various melanoma cell lines. The growth inhibition against melanoma cell lines of various compound is shown below in Tables 19 and 20. Inhibition results are reported as the IC50 concentration in μM of the indicated compound or as the percent viability […] of the indicated compound. NA=not available.

SMILES | IC50 (LOX IMVI) [µM] | LOX-IMVI (% viability) (LOX IMVI; human, 24 h) [%] | IC50 (SK-MEL-25) [µM] | SK-MEL-25 (% viability) (SK-MEL-25) [%] | IC50 (SK-MEL-28) [µM] | SK-MEL-28 (% viability) (SK-MEL-28) [%] | SK-MEL-5 (% viability) (SK-MEL-5) [%] | IC50 (HFF-1) [µM] | MALME-3M (% viability) (MALME-3M) [%]
C[C@]12CC[C@H]3[C@@H](CC=C4c5sc(Nc6ccc(F)cc6)nc5CC[C@@]43C)[C@@H]1CC[C@@H]2O [IIIa.12, (1S,2R,13R,14S,17S,18S)-7-(4-fluoroanilino)-2,18-dimethyl-8-thia-6-azapentacyclo[11.7.0.02,10.05,9.014,18]icosa-5(9),6,10-trien-17-ol] | 5.2 | 12 | 7 | 7.33 | 10 | 2.35 | 3.66 | 24 | 35.97
C[C@]12CC[C@H]3[C@@H](CC=C4c5sc(Nc6ccc(F)cc6F)nc5CC[C@@]43C)[C@@H]1CC[C@@H]2O [IIIa.13, (1S,2R,13R,14S,17S,18S)-7-(2,4-difluoroanilino)-2,18-dimethyl-8-thia-6-azapentacyclo[11.7.0.02,10.05,9.014,18]icosa-5(9),6,10-trien-17-ol] | 6.42 | – | 8 | 8.72 | 11 | 3.92 | 4.9 | 25 | 20.83
